Experiments:
[1] = test system: cats with chronic renal failure; test: GFR from plasma clearance of iohexol in client-owned normotensive cats with spontaneous chronic renal failure (Experiment 2); type: in vivo, cat
From the text: The data in the Table below were collected from client-owned, pet cats that had been diagnosed with spontaneous chronic renal failure (chronic renal insufficiency). These cats were presented by owners/clients to veterinary practices for evaluation of general health, kidney function, and systolic blood pressure.
Chronic renal failure is generally considered an irreversible and progressive disease in cats. […] Cats were considered normotensive as defined by systolic arterial blood pressure less than 160 mm Hg prior to the onset of treatment.
Renal function was assessed by determining glomerular filtration rate (GFR). GFR was estimated from plasma clearance of the exogenous marker, iohexol, approximately 7 days prior to the onset of treatment (day—7) and on approximately days 28, 56, 112, and 224 following onset of treatment.

[2] = test system: normotensive nephrectomised cats with chronic renal failure; test: GFR in normotensive nephrectomised cats with chronic renal failure (Example 1); type: in vivo, cat; settings: amlodipine besylate once daily at 0.125 mg/kg; after 35 days; no change in placebo group
Protocol: In this experiment, comparative groups of normotensive nephrectomised cats with chronic renal failure had their GFR measured. […] After 35 days the GFR was measured again. There was no change in the placebo group, but the GFR had increased by an average of ca. 28% for the amlodipine-treated group.

CCOC(=O)C1=C(COCCN)NC(C)=C(C(=O)OC)C1c1ccccc1Cl (stereo not drawn) [Amlodipine, amlodipine besylate]
GFR increase on average between day −7 and day 224 ([1]; 0.125 to 0.25 mg/kg once daily oral, placebo declined 17%): 9%
effect on decline in renal function (in words) ([1]; 0.125 to 0.25 mg/kg/day orally): prevents the decline in function associated with the progression of chronic renal failure in cats
increase in GFR (average) [2]: ca. 28%

Source: US6521647B2, “Treatment of renal disorders” (Pfizer Inc., priority 2000, dated 2003)
